Reference: patent publication US11529344B2, “EZH2 inhibitor combination therapies” (Pfizer Inc., priority 2017, dated 2022)
“Also recorded” adds a separate entry of the source.

Legend:
[1] = test system: DMS114 SCLC xenograft
From the text: • (i) Compound Formulation: Compound 1 was formulated as a wet-milled nanosuspension (24 hr milling in 2.5% w/v polyvinyl pyrrolidone (PVP), 0.5% w/v Macrogol 15 Hydroxystearate (Kolliphor HS15) aqueous, with <1 μm particle-size distribution (PSD; ˜650 nm median diameter (d50)) for oral gavage administration. • (ii) Cell Implant, Compound Dosing and Tissue Collection: Immune deficient female mice with a severe combined immunodeficiency (SCID) mutation in a non-obese diabetic background (NOD SCID; 6 to 8 week old; NOD.CB17-Prkdcscid/NCrCrl from Charles River Laboratories) received a subcutaneous (SC) implant of 7.5×10^6 DMS114 cells (in 1:1 matrigel (Trevigen, Cultrex BME Path Clear®, Lot #: 30625F14), total volume 200 μl) into the right flank. Tumor volume and body weight were measured twice a week. On Day 20 post implant, 64 mice were randomized, based on tumor size at a geometric mean (geomean) of about 160 mm^3, into 6 groups corresponding to dose (Table 1). Compounds were administered at 10 ml/kg by oral gavage (Compound 1; BID ( 7/17 hours apart)) or intraperitoneal injection (cisplatin), respectively. The cisplatin dosing schedule was once a week for 3 weeks (Q7Dx3) and started 7 days after the randomization and treatment initiation with Compound 1.
On Day 55, study groups 1, 2, 3 and 4 were terminated (Table 1). Tumor (snap frozen) samples were collected at 4 hours post last dose for pharmacodynamic (PD) analysis. […] Tumor samples from groups 5 and 6 were collected 3 hours post last dose depending on available tumor sizes. All procedures performed on these animals were in accordance with regulations and established guidelines and were reviewed and approved by Pfizer's Institutional Animal Care and Use Committee. • (iii) Data Interpretation: For each experiment, calculations were performed and graphs created in Microsoft Excel and GraphPad Prism version 7.02 respectively. The tumor volume was calculated as 0.5×length×width^2. Tumor growth inhibition (TGI) was determined by the formula: % TGI=[1−(Vtx−Vt0/Vcx−Vc0)]×100, where Vc, Vt are the geometric means of control and treated groups. X=day X on study and 0=initial day of dosing. ELISA Assay: • (i) Histone Extraction: Histone extraction was performed using the EpiQuick Histone Extraction Kit (Epigentek OP0006). Frozen tumor samples were cut and homogenized using cold mortar and pestle on dry-ice. The homogenized mixture was transferred to a 1.5 mL tube in 1× Pre-Lysis Buffer (200 mg/mL) containing phenylmethylsulfonyl fluoride (PMSF). Samples were gently mixed, incubated on ice for 15 minutes, and spun down at 3,000 rpm for 5 minutes at 4° C. The tissue pellet was resuspended in 3 volumes (approximately 200 μL per 100 mg of tissue) of lysis buffer from the Histone Extraction Kit, incubated on ice for 30 minutes, and spun down at 12,000 rpm for 5 minutes at 4° C. Balance-DTT buffer was prepared by adding DTT Solution to balance buffer at a 1:500 ratio. The supernatant (containing acid soluble proteins) was transferred to a new 1.5 mL tube and 0.3 volumes of Balance-dithiothreitol (DTT) buffer from the Histone Extraction Kit were immediately added to each sample. The tumor lysate was briefly sonicated for 4 cycles (30 seconds on and 30 seconds off) at high intensity using the Bioruptor Plus (Diagenode #601020001). Extracts were aliquoted and stored at −20° C. (short term) or −80° C. (long term). Protein concentration was quantified using the Coomassie Plus (Bradford) Assay Kit (Thermo #23236). • (ii) H3K27Me3 and Me2 ELISA Assay: Histone extracts were diluted to a final concentration of 400 ng (or 800 ng) in 100 μL of coating buffer (phosphate buffered saline (PBS) containing 0.05% bovine serum albumin (BSA)).

[2] = test system: EZH2 (H3K27Me3 levels) in DMS114 SCLC cells containing wild-type EZH2; experiment: cells; details: Homo sapiens, DMS-114, 72 h, read-out: H3K27Me3 IC50 ± SD (nM) (n)
Protocol: SCLC cell line DMS114 was obtained from American Type Culture Collection (American Type Culture Collection, ATCC CRL-2066) and cultured in Waymouth's Medium MB 752/1 (Gibco/Life Technologies Cat. 11220-035), plus 10% Fetal Bovine Serum (FBS) (Gibco/Life Technologies Cat. 10082-147) and 1% Pen/Strep. […] All cells were maintained in a humidified incubator at 37° C. with 5% carbon dioxide (CO2).
Cells were plated at 1500 cells per well in 96-well black, flat, clear-bottom plates (Falcon, BD-353219). The following day, compounds were added to the wells at 3-fold dilution with a final concentration range from 3 μM to 0.1 nM, leaving some cells empty for controls: “DMSO only (1st and 2nd antibody)” and “DMSO only (2nd antibody only)”. […] After 2 hours, the secondary antibody was removed, the plates were washed again 5 times in PBST for 5 minutes each and then fluorescent signal was detected on an Odyssey LiCoR instrument (focus length 3 mm; using both 800 nm (for secondary) and 700 nm filters together (for DRAQ5). IC50 values were calculated using a four-parameter fit with GraphPad Prism version 7.02 and arithmetic mean of all biological replicates was calculated.
EZH2 inhibitor activity was determined in the cells by measurement of the relative amount of cellular H3K27Me3 levels.

**Q.** `COc1cc(C)[nH]c(=O)c1CN1CCc2c(Cl)cc([C@H](OC)C3COC3)c(Cl)c2C1=O` [Compound 1, 5,8-dichloro-2-[(4-methoxy-6-methyl-2-oxo-1,2-dihydro-pyridin-3-yl)methyl]-7-[(R)-methoxy(oxetan-3-yl)methyl]-3,4-dihydroisoquinolin-1(2H)-one] was tested. Which “TGI by Day 55” value ([1]; Compound 1 100 mg/kg BID PO, cisplatin 4 mg/kg IP Q7Dx3, alone or combined) did it give?
**A.** 50%

**Q.** And the “anti-tumor benefit vs vehicle control group” value ([1]; Compound 1 100 mg/kg BID and 300 mg/kg BID, Day 55)?
**A.** significant anti-tumor benefit

**Q.** And the “tolerability / body weight loss” value ([1]; Compound 1 PO BID, cisplatin 4 mg/kg IP Q7Dx3, combination with Compound 1 100 mg/kg BID)?
**A.** well tolerated with limited bodyweight loss; also recorded: minimal toxicity

**Q.** And the complete tumor regressions ([1]; Compound 1 monotherapy arms, 30, 100 and 300 mg/kg BID)?
**A.** No complete tumor regressions

**Q.** And the “tumors regressed or progressed compared to the starting tumor burden” value ([1]; Day 55, Compound 1 100 mg/kg BID, cisplatin 4 mg/kg Q7Dx3)?
**A.** all tumors had progressed

**Q.** What about the “survival benefit, Log-rank test (Mantel-Cox)” value ([1]; survival cut-off at 500 mm^3 tumor burden) of the same compound?
**A.** did not reach the P<0.05 significance level

**Q.** What about the median survival ([1]; survival cut-off at 500 mm^3 tumor burden, Compound 1 100 mg/kg BID, cisplatin 4 mg/kg Q7Dx3) of the same compound?
**A.** 39 days

**Q.** And the IC50 [2]?
**A.** 9.48 nM
